≈ marks a conversion by molar mass, not a printed value. Read-outs that look alike come from different tables or passages of the source.
Experiments:
[1] = Intracerebral toxicity in mice; format: in vivo, Swiss Albino mice (Charles River); conditions: aqueous solution, seven day observation, Litchfield and Wilcoxon
Procedure: (§1) Toxicity evaluations in accordance with three different techniques were carried out on aqueous solutions of the compounds of Examples I and II. The techniques utilized are described below.
Swiss Albino mice (Charles River) were used. Fixed volumes of aqueous solutions of the iodinated compounds were injected intracerebrally via a 27 gauge needle (1/4 inch in length) according to the method of Haley et al. (Br. J. of Pharmac. 12:12-15, 1957). The animals were observed immediately following injections and daily throughout a seven day observation period. The LD50 values were calculated by the method of Litchfield and Wilcoxon (J. of Pharmac. and Exptl. Therap. 96:99-113, 1949).

[2] = Intravenous pyelographic studies in dogs; format: in vivo; conditions: dog
Procedure: The compounds of Examples I and II were employed in intravenous pyelographic studies carried out in dogs. At a dosage of 1000 mg.

[3] = Acute intravenous toxicity studies in mice; format: in vivo, Swiss Albino mice (Charles River); conditions: intravenous (lateral tail vein), iodine concentration 28.2%, pH 7.0-7.2, approx. 1 ml./min, seven day observation, Litchfield and Wilcoxon
Procedure: as §1
Swiss Albino mice (Charles River) were dosed in the lateral tail vein with aqueous solutions of the above-noted iodinated compounds having an iodine concentration of 28.2% with a pH of 7.0-7.2. The solutions were injected at the rate of approximately 1 ml./min. […] The LD50 values were calculated by the method of Litchfield and Wilcoxon (J. of Pharmac. and Exptl. Therap. 96: 99-113, 1949).

[4] = Intracisternal toxicity in rats; format: in vivo, Sprangue-Dawley (Carworth) rats; conditions: aqueous solution, two day observation, Litchfield and Wilcoxon
Procedure: as §1
Sprangue-Dawley (Carworth) rats were used. The method used was a variation of the procedure outlined by Melartin et al. (Invest. Rad. 5: 13-21, 1970). After dosing, the animals were housed individually and observed for immediate reactions and periodically for a two day observation period. The LD50 values were calculated according to the method of Litchfield and Wilcoxon (J. of Pharmac. and Exptl. Therap. 96:99-115, 1949).

Water solubility = format: physicochemical

Compound: CNC(=O)c1c(I)c(NC(=O)OCC(=O)[C@@H](O)[C@H](O)[C@@H](O)CO)c(I)c(C(=O)N(C)C)c1I [Example I, 1-[N-(2,4,6-triiodo-3-N,N-dimethylcarbamyl-5-N-methylcarbamyl)carbanilyl]-L-sorbose]
- LD50 Value, Intracerebral (Mice) [1]: 1,450 mg. I/kg. body wt.
- Pyelographic visualization ([2]; 1000 mg. I/kg., five minutes after injection): very good contrast of the kidneys, collecting pelvises and urinary bladder
- LD50 Value, I.V. (Mice) [3]: 3,027 mg. I/kg. body wt.
- LD50 Value, Intracisternal (Rats) [4]: 13 mg. I/kg. body wt.
- solubility at 730 h (Water solubility; after standing for one month): 200 mg/mL (≈ 248 mM)
- solubility (Water solubility; initial determination, read-out: Water solubility (initially)): 1000 mg/mL (≈ 1240 mM)

Compound: CNC(=O)c1c(I)c(NC(=O)OC[C@@H](O)[C@H](O)[C@H](O)[C@@H](O)C=O)c(I)c(N(C)C(C)=O)c1I [Example II, 6-[2,4,6-Triiodo-3-(N-methylacetamido)-5-(N-methylcarbamyl)carbanilyl]-D-galactose]
- LD50 Value, Intracerebral (Mice) [1]: 222 mg. I/kg. body wt.
- Pyelographic visualization ([2]; 155 mg. I/kg., five minutes after injection): a better shadow of the kidneys was seen together with partial visualization of the ureters
- Pyelographic visualization ([2]; 155 mg. I/kg., one minute after injection): visualization of the kidneys
- LD50 Value, I.V. (Mice) [3]: 2,300 mg. I/kg. body wt.
- LD50 Value, Intracisternal (Rats) [4]: < 20 mg. I/kg. body wt.
- solubility (Water solubility; read-out: Water solubility): ≥ 1000 mg/mL

Source: patent US4230845A, “Polyhydroxy-alkyl-3,5-disubstituted-2,4,6-triiodocarbanilates” (Mallinckrodt, Inc., priority 1978, dated 1980)
